Data: PubChem BioAssay (NCI)
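Test compounds were applied to cells in 96-well plates for 48 hours at 5 doses. At the TGI there is no net growth.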

Experiments:
Assay in all cases: NCI tumour cell line growth inhibition, 48 h
[1] = system: 786-0 renal
[2] = system: A498 renal
[3] = system: A549 NSCLC
[4] = system: ACHN renal
[5] = system: CAKI-1 renal
[6] = system: CCRF-CEM leukemia
[7] = system: COLO 205 colon
[8] = system: DU-145 prostate
[9] = system: EKVX NSCLC
[10] = system: HCC-2998 colon
[11] = system: HCT-116 colon
[12] = system: HCT-15 colon
[13] = system: HL-60(TB) leukemia
[14] = system: HOP-62 NSCLC
[15] = system: HOP-92 NSCLC
[16] = system: HT29 colon
[17] = system: IGROV1 ovarian
[18] = system: K-562 leukemia
[19] = system: KM12 colon
[20] = system: LOX IMVI melanoma
[21] = system: M14 melanoma
[22] = system: MALME-3M melanoma
[23] = system: MDA-MB-231 breast
[24] = system: MDA-MB-435
[25] = system: MDA-N
[26] = system: MOLT-4 leukemia
[27] = system: NCI-H226 lung
[28] = system: NCI-H23 lung
[29] = system: NCI-H460 lung
[30] = system: NCI-H522 lung
[31] = system: NCI/ADR-RES ovarian
[32] = system: OVCAR-3 ovarian
[33] = system: OVCAR-4 ovarian
[34] = system: OVCAR-5 ovarian
[35] = system: OVCAR-8 ovarian
[36] = system: PC-3 prostate
[37] = system: RXF 393 renal
[38] = system: SF-268 CNS
[39] = system: SF-295 CNS
[40] = system: SF-539 CNS
[41] = system: SK-MEL-2 melanoma
[42] = system: SK-MEL-28 melanoma
[43] = system: SK-OV-3 ovarian
[44] = system: SN12C renal
[45] = system: SNB-19 CNS
[46] = system: SNB-75 CNS
[47] = system: SR leukemia
[48] = system: SW-620 colon
[49] = system: T-47D breast
[50] = system: TK-10 renal
[51] = system: UACC-257 melanoma
[52] = system: UACC-62 melanoma
[53] = system: UO-31 renal

`COc1ccc2nc3ccc(OC)cc3c(SCc3ccc([N+](=O)[O-])cc3)c2c1` gave a TGI [1] of over 100 µM, a TGI [2] of over 100 µM and a TGI [3] of over 100 µM. It also gave a TGI [4] of over 100 µM, a TGI [5] of over 100 µM and a TGI [6] of over 100 µM. It also gave a TGI [7] of over 100 µM, a TGI [8] of over 100 µM and a TGI [9] of over 100 µM. For the same molecule, the TGI [10] was over 100 µM, the TGI [11] was over 100 µM and the TGI [12] was over 100 µM. It also gave a TGI [13] of over 100 µM, a TGI [14] of over 100 µM and a TGI [15] of over 100 µM. For the same molecule, the TGI [16] was over 100 µM, the TGI [17] was over 100 µM and the TGI [18] was over 100 µM. It also gave a TGI [19] of over 100 µM, a TGI [20] of over 100 µM and a TGI [21] of over 100 µM. It also gave a TGI [22] of over 100 µM, a TGI [23] of over 100 µM and a TGI [24] of over 100 µM. The TGI [25] was over 100 µM, the TGI [26] was over 100 µM and the TGI [27] was over 100 µM. It also gave a TGI [28] of over 100 µM, a TGI [29] of over 100 µM and a TGI [30] of over 100 µM. It also gave a TGI [31] of over 100 µM, a TGI [32] of over 100 µM and a TGI [33] of 69.6 µM. The TGI [34] was over 100 µM, the TGI [35] was over 100 µM and the TGI [36] was over 100 µM. For the same molecule, the TGI [37] was over 100 µM, the TGI [38] was over 100 µM and the TGI [39] was over 100 µM. It also gave a TGI [40] of over 100 µM, a TGI [41] of over 100 µM and a TGI [42] of over 100 µM. For the same molecule, the TGI [43] was over 100 µM, the TGI [44] was over 100 µM and the TGI [45] was over 100 µM. It also gave a TGI [46] of over 100 µM, a TGI [47] of over 100 µM and a TGI [48] of over 100 µM. It also gave a TGI [49] of over 100 µM, a TGI [50] of over 100 µM and a TGI [51] of over 100 µM. It also gave a TGI [52] of over 100 µM and a TGI [53] of over 100 µM.
